Assays:
[1] = test system: human iPS cells (1231A3 strain); assay: Immunostaining of aggregate sections for retinal tissue markers Chx10, Rx; assay type: cell-based; details: day 20
Experimental: Here, as step 3, culturing was performed under the following condition 1 and condition 2: Under condition 1(+BMP), on day 6 after the start of suspension culturing, the medium was changed to a medium free of Y27632 and containing human recombinant BMP4 (manufactured by R&D) such that the final concentration of exogenous human recombinant BMP4 was 1.5 nM (55 ng/ml) (FIG. 6B, D). Under condition 2(−BMP), on day 6 after the start of suspension culturing, a half amount of the medium was changed to a medium free of Y27632 and free of a BMP signal transduction pathway activating substance, without adding exogenous human recombinant BMP4 (FIG. 6A, C).
The thus-prepared cell aggregates on day 23 after the start of suspension culturing, which were produced from the above iPS cells that underwent a preconditioning treatment in step 1 as a starting material were fixed with 4% para-formaldehyde to prepare frozen sections. These frozen sections were immunostained for Chx10 (anti-Chx10 antibody, Exalpha, sheep), which is one of the retinal tissue markers, or Rx (anti-Rx antibody, Takara, guinea pig), which is one of the retinal tissue markers. These immunostained sections were observed under an inverted fluorescence microscope.
Cell aggregate were prepared according to the method described in Example 8 under conditions in which human iPS cells using StemFit medium as a feeder-free medium were used as a starting material, TGFβR inhibiting substance (SB431542) or BMPR inhibiting substance (LDN193189) was used in step 1, Shh signal transduction pathway activating substance was used in step 2, and BMP signal transduction pathway activating substance was added or not added in step 3. Neural tissues were formed in all the aggregates formed under all these conditions on day 23 after the start of suspension culturing. The above cell aggregates were fixed with 4% para-formaldehyde to prepare frozen sections. These frozen sections were immunostained for Chx10 (anti-Chx10 antibody, Exalpha, sheep), which is one of the retinal tissue markers, or Rx (anti-Rx antibody, Takara, guinea pig), which is one of the retinal tissue markers. These immunostained sections were observed under an fluorescence microscope. […] Furthermore, it was found from the analysis of serial sections that, in a neural tissue having a high (not less than 95%) proportion of Chx10-positive cells, Rx is also strongly positive (FIG. 9B, D, F, H).
Cell aggregates were prepared according to the method described in Example 10 by using, as a starting material, human iPS cells using Essential 8 medium as a feeder-free culturing, under conditions that TGFβR inhibiting substance (SB431542) are used in step 1, a Shh signal transduction pathway activating substance are used in step 2, and a BMP signal transduction pathway activating substance are added or are not added in step 3. The cell aggregates on day 18 after the start of suspension culturing were each fixed with 4% para-formaldehyde to prepare frozen section. These frozen sections were immunostained for Chx10 (anti-Chx10 antibody, Exalpha, sheep), which is one of the retinal tissue markers, or Rx (anti-Rx antibody, Takara, guinea pig), which is one of the retinal tissue markers, and observed under a fluorescence microscope. […] Furthermore, it was found from the analysis of serial sections that, in a neural tissue having a high (not less than 95%) proportion of Chx10-positive cells, Rx is also strongly positive. […]
A Cell aggregate was formed on day 18 after the start of suspension culturing under every conditions, and a neural tissue was formed (FIG. 14, upper panel). The above cell aggregates on day 18 after the start of suspension culturing were each fixed with 4% para-formaldehyde to prepare frozen section. […]

[2] = test system: human iPS cells (1231A3 strain); assay: Neural tissue / neuroepithelium formation in cell aggregates, bright field observation; assay type: cell-based; details: day 20
Experimental: The above human iPS cells were treated with the cell dispersion solution by using TrypLE Select (Life Technologies), further dispersed into single cells by pipetting operation, and the above human iPS cells dispersed into single cells were suspended in 100 μl of a serum-free medium at 1.2×10^4 cells per well of a non-cell-adhesive 96-well culture plate ([…], manufactured by SUMITOMO BAKELITE), and subjected to suspension culturing at 37° C., 5% CO2. As the serum-free medium (gfCDM+KSR) therefor, a serum-free medium which is a 1:1 mixture of F-12 medium and IMDM medium supplemented with 10% KSR, 450 μM 1-monothioglycerol, 1× Chemically defined lipid concentrate was used. At the time of the start of suspension culturing (day 0 after the start of suspension culturing, start of step 2), Y27632 (final concentration 20 μM) was added to the above serum-free medium. By day 2 after the start of suspension culturing, cell aggregates were formed under both conditions with preconditioning and conditions without preconditioning (step 2 completed, step 3 start). On day 3 after the start of suspension culturing, a serum-free medium (50 μl) free of Y27632 was added. On day 6 or later after the start of suspension culturing, a half amount of the medium was changed to the above serum-free medium free of Y27632 once per 2-4 days. In the half-medium change operation, a half volume, namely 75 μl, of the medium in the culture vessel was discarded, the above fresh serum-free medium (75 μl) was added to make the total medium amount 150 μl. […]
At the time of the start of suspension culturing (day 0 after the start of suspension culturing, start of step 2), the cells were cultured under the following 2 conditions including condition 1 and condition 2. As condition 1(+SAG), at the time of the start of suspension culturing, Y27632 (final concentration 20 μM) and SAG (Shh signal transduction pathway activating substance, 300 nM) were added to the above serum-free medium. As condition 2(−SAG), at the time of the start of suspension culturing, Y27632 (final concentration 20 μM) was added to the above serum-free medium and SAG was not added. By day 2 after the start of suspension culturing, cell aggregates were formed (step 2 completed, step 3 start) under both conditions. On day 3 after the start of suspension culturing, a medium (50 μl) free of Y27632, SAG and containing human recombinant BMP4 (manufactured by R&D) was added such that the final concentration of exogenous human recombinant BMP4 was 1.5 nM (55 ng/ml). On day 6 after the start of suspension culturing, a half amount of the medium was changed with a serum-free medium free of Y27632, SAG and human recombinant BMP4. Thereafter, a half amount of the medium was changed, once every 2-4 days, with the above serum-free medium free of Y27632, SAG, and human recombinant BMP4.
The thus-prepared cells were subjected to bright field observation on day 18 after the start of suspension culturing under an inverted microscope (KEYENCE) (FIG. 15).
At the time of the start of suspension culturing (day 0 after the start of suspension culturing, start of step 2), the cells were cultured under the following 2 conditions including condition 1 and condition 2. As condition 1(+SAG), at the time of the start of suspension culturing, Y27632 (final concentration 20 μM) and SAG (Shh signal transduction pathway activating substance, final concentration 30 nM) were added to the above serum-free medium. As condition 2(−SAG), at the time of the start of suspension culturing, Y27632 (final concentration 20 μM) was added to the above serum-free medium and SAG was not added. By day 2 after the start of suspension culturing, cell aggregates were formed under both conditions (step 2 completed, step 3 start). […]

[3] = A83-01 0.5 μM 1 day in step 1, SAG 30 nM in step 2, BMP4 1.5 nM on day 3

c1ccc2c(Oc3nc(Nc4ccc(N5CCOCC5)cc4)c4ncn(C5CCCCC5)c4n3)cccc2c1 [Purmorphamine, 9-cyclohexyl-N-[4-(4-morpholinyl)phenyl]-2-(1-naphthalenyloxy)-9H-purin-6-amine]
proportion of Chx10-positive cells in the total cells ([1]; A83-01 0.5 μM and SAG 300 nM in step 1, substance added in step 2 (SAG 30 nM, Purmorphamine 0.2 μM or human recombinant Shh 300 ng/ml), BMP4 1.5 nM on day 3): about 90%

Cc1cccc(-c2nn(C(=S)Nc3ccccc3)cc2-c2ccnc3ccccc23)n1 [A83-01, 3-(6-methyl-2-pyridinyl)-N-phenyl-4-(4-quinolinyl)-1H-pyrazole-1-carbothioamide]
cell aggregate and neural tissue formation [2, 3]: a neural tissue can be formed efficiently
cell aggregate and neural tissue formation ([2]; step 1 for 1 day: A83-01 0.5 μM alone or with SAG 300 nM, Purmorphamine 0.2 μM, or human recombinant Shh 50 ng/ml or 300 ng/ml, SAG 30 nM in step 2, BMP4 1.5 nM on day 3): a neural tissue can be produced efficiently
proportion of Chx10-positive cells in the total cells [1, 3]: about 20%

Reference: patent publication US12492373B2, “Production method for nerve tissue” (Racthera Co., Ltd., priority 2014, dated 2025)
